Source: US12678438B2, “Treatment of cancer with CDK inhibitors” (THE TRUSTEES OF THE UNIVERSITY OF PENNSYLVANIA, priority 2019, dated 2026)

Assays:
Assay type in all cases: cell-based, human
[1] = test system: DU145 cells; assay: RNA-seq gene expression profiling; settings: DU145, 100 nM THZ1, 24 h
Description: (§1) RNA-seq libraries were constructed using the TruSeq sample Prep Kit V2 (Illumina) according to the manufacturer's instructions. Briefly, 1 μg of purified RNA was poly-A selected and fragmented with fragmentation enzyme. After first and second strand synthesis from a template of poly-A selected/fragmented RNA, other procedures from end-repair to PCR amplification were performed according to the instructions given in the protocol. Libraries were purified and validated for appropriate size on a 2100 Bioanalyzer DNA 1000 chip (Agilent Technologies, Inc.). The DNA library was quantitated using Qubit and normalized to 4 nM prior to pooling. Libraries were pooled in an equimolar fashion and diluted to a final concentration of 1.8 pM. Library pools were clustered and run on Nextseq500 platform (Illumina Inc.) with single-end reads of 75 bases.
(§2) Single-end sequencing reads were demultiplexed using Illumina bcl2fastq, quality checked using FASTQC (bioinformatics.babraham ac uk/projects/fastqc), and aligned to the GRCh37 (release 27) genome using the STAR v2.5.1 aligner, with default settings. The read statistics generated by STAR v2.5.1 was used to ensure that the aligned reads in all samples were over 90% of the total reads. The transcripts were assembled using cufflinks and the count and FPKM tables were computed using cuffnorm. Principal component analysis on the FPKM values was used to cluster the samples for further quality check.
(§3) Genes differentially expressed between any two sets of treatment were determined using DESeq2 (bioconductor.org/packages/release/bioc/html/DESeq.html), a statistical tool that employs shrinkage estimates to compute fold changes. In all our calculations, the raw RNA-seq read counts from biological duplicates, for each treatment condition, was used as the input for DESeq2.

[2] = test system: LNCaP cells; assay: RNA-seq gene expression profiling; settings: 100 nM THZ1, 24 h
Description: as §1, §2, §3

[3] = test system: VCaP cells; assay: RNA-seq gene expression profiling; settings: 100 nM THZ1, 24 h
Description: as §1, §2, §3

[4] = test system: enzalutamide resistant PCa cell lines; assay: Enzalutamide resistant PCa cells: immunoblot and colony formation
Description: Prostate parental cell lines used in this study were obtained from ATCC, LNCaP-AR cells were a gift from Dr. Charles Sawyers (Memorial Sloan-Kettering Cancer Center, New York, NY), and LNCaP AR-KO cells were a gift from Dr. Dean Tang (Roswell Park Cancer Institute, Buffalo, NY). LNCaP, LNCaP-AR, 22RV1, LAPC4, DU145, PC3, and LNCaP AR-KO prostate cancer cell lines were grown in RPMI 1640 (Gibco, 11875093), and VCaP prostate cancer cell line was grown in DMEM with Glutamax (Gibco, 21013024). The medium was supplemented with 10% Fetal Bovine Serum (FBS) (HYC, SH30910.03) and 1% Penicillin Streptomycin Solution (Invitrogen, 15140122), hereto referred to as “complete media.” The immortalized benign prostate cell line RWPE-1 was grown in keratinocyte media with supplements (Thermo Fisher Scientific, 17005042). LNCaP-AR and VCaP enzalutamide-resistant cell lines were derived from enzalutamide-resistant PCa tumor xenograft as described previously. LNCaP and LAPC4 enzalutamide-resistant cell lines were generated by culturing the cells in presence of 20 μM enzalutamide for 3-4 months in vitro. Polyclonal pools of enzalutamide-resistant cells were cultured and maintained in media containing enzalutamide throughout. All experiments for enzalutamide resistant pools were done in presence of enzalutamide throughout the remainder of all experiments with these cells. The cell lines were tested negative for mycoplasma contamination and maintained in a humidified incubator at 37° C. and 5% CO2.
For the long-term colony formation assay, 10,000-50,000 cells/well in six-well plates (n=3) were seeded and treated with the required drugs/compounds or vehicle for 14 days. Media was refreshed every 4-5 days. Colonies were fixed and stained using 0.5% (w/v) crystal violet (Sigma, C0775) in 20% (v/v) methanol for 30 min, washed with distilled deionized water, and air-dried. To quantify staining, we washed the stained wells with 500 μL 10% acetic acid and using colorimetric assays determined the absorbance at 590 nm using a spectrophotometer (Synergy HT, BioTek Instruments, Vermont-USA).
Cell lysates were prepared with RIPA buffer (Boston Bioproducts, BP-115DG)-10 mM Tris-HCl pH 7.5, 1 mM EDTA, 400 mM NaCl, 0.5% NP-40 and 1 mM DTT, supplemented with protease inhibitor cocktail (Pierce, A32965) and phosphatase inhibitor (Thermo, 1861280). For immunoblotting 200 μg total protein extract was boiled in sample buffer and 15-25 μg aliquots were separated by SDS-PAGE and transferred onto Polyvinylidene Difluoride membrane (GE Healthcare, IPVH00010). The membrane was incubated for one hour in blocking buffer [Tris-buffered saline, 0.1% Tween (TBS-T), 5% nonfat dry milk followed by overnight incubation on a rocker at 4° C. with the primary antibody. […]

SMILES: CN(C)C/C=C/C(=O)Nc1ccc(C(=O)Nc2cccc(Nc3ncc(Cl)c(-c4c[nH]c5ccccc45)n3)c2)cc1 [THZ1]
- genes down (RNA-seq) [1]: 190
- genes up (RNA-seq) [1]: 191
- genes down (RNA-seq) [2]: 1695
- genes up (RNA-seq) [2]: 2612
- genes down (RNA-seq) [3]: 1203
- genes up (RNA-seq) [3]: 1325
- PSA ([4]; 200 nM THZ1, 24 h): reduced PSA
- apoptosis (cleaved PARP, cleaved caspase-3) ([4]; 200 nM THZ1, 24 h): increased apoptosis
- p-MED1 ([4]; 200 nM THZ1, 24 h): loss of p-MED1
- growth (colony formation) ([4]; enzalutamide plus 50 nM THZ1): growth inhibition
